Measurements published in patent US8993756B2 (Merck Sharp & Dohme Corp., priority 2011, dated 2015).

What was measured:
JAK3 = JAK3 (Homo sapiens (Human), UniProt P52333); assay: Jak Biochemical HTRF Assay (JAK3); conditions: recombinant GST-tagged catalytic domain, [ATP] 2.9 μM
JAK2 = JAK2 (Homo sapiens (Human), UniProt O60674); assay: Jak Biochemical HTRF Assay (JAK2); conditions: recombinant GST-tagged catalytic domain, [ATP] 8.5 μM
JAK2, sequence (O60674 849-1124): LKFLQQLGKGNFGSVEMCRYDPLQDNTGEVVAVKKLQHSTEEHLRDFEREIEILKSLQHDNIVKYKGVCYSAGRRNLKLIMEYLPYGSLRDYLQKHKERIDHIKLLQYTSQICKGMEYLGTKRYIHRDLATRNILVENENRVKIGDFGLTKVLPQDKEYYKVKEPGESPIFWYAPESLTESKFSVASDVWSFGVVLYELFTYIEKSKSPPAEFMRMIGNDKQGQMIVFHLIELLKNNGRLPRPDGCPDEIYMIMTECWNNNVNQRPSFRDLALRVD

JAK3, sequence (P52333 822-1111): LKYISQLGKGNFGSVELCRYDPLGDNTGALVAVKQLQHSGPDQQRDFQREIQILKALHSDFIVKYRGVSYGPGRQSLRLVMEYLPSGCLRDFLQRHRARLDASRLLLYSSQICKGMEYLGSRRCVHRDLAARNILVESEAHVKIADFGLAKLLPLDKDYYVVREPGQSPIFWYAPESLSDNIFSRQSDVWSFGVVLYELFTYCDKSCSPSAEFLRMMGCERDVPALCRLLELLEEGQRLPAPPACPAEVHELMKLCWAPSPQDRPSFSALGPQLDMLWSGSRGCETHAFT

Compound | IC50 (JAK3; given as range class) | IC50 (JAK2; given as range class) | IC50 (JAK3) | IC50 (JAK2)
CCOC(=O)c1c[nH]c2ncnc(-c3cccc(N(C)S(C)(=O)=O)c3)c12 [Example 1-102, ethyl 4-{3-[methyl(methylsulfonyl)amino]phenyl}-7H-pyrrolo[2,3-d]pyrimidine-5-carboxylate] | 10 to 500 nM | > 500 nM |  | 
C=C(C)C(=O)Nc1cccc(-c2ncnc3[nH]cc(-c4cnc[nH]4)c23)c1 [Example 21-2, N-(3-(5-(1H-imidazol-5-yl)-7H-pyrrolo[2,3-d]pyrimidin-4-yl)phenyl)methacrylamide] |  |  | 7.5 nM | > 1500 nM
CCOC(=O)c1c[nH]c2ncnc(-c3ccc(C(N)=O)cc3)c12 [Example 1-7, ethyl 4-(4-carbamoylphenyl)-7H-pyrrolo[2,3-d]pyrimidine-5-carboxylate] | 10 to 500 nM | > 500 nM |  | 
CCOC(=O)c1c[nH]c2ncnc(-c3cccc(Nc4ncnc(C#N)n4)c3)c12 [Example 6-3, ethyl 4-{3-[(4-cyano-1,3,5-triazin-2-yl)amino]phenyl}-7H-pyrrolo[2,3-d]pyrimidine-5-carboxylate] | 10 to 500 nM | 10 to 500 nM |  | 
CCOC(=O)c1c[nH]c2ncnc(-c3ccc4c(c3)CNC4=O)c12 [Example 1-65, ethyl 4-(1-oxo-2,3-dihydro-1H-isoindol-5-yl)-7H-pyrrolo[2,3-d]pyrimidine-5-carboxylate] | 10 to 500 nM | 10 to 500 nM |  | 
CCOC(=O)c1c[nH]c2ncnc(-c3cccc(NC(=O)/C=C/C(F)(F)F)c3)c12 [Example 5-42, ethyl 4-(3-{[(2E)-4,4,4-trifluorobut-2-enoyl]amino}phenyl)-7H-pyrrolo[2,3-d]pyrimidine-5-carboxylate] | 10 to 500 nM | > 500 nM |  | 
CCOC(=O)c1c[nH]c2ncnc(-c3ccccc3N)c12 [Example 1-55, ethyl 4-(2-aminophenyl)-7H-pyrrolo[2,3-d]pyrimidine-5-carboxylate] | 10 to 500 nM | > 500 nM |  | 
CCOC(=O)c1c[nH]c2ncnc(-c3cccc(NC(=O)/C=C/c4nccs4)c3)c12 [Example 5-39, ethyl 4-(3-{[(2E)-3-(1,3-thiazol-2-yl)prop-2-enoyl]amino}phenyl)-7H-pyrrolo[2,3-d]pyrimidine-5-carboxylate] |  |  | 3.9 nM | 496 nM
CCOC(=O)c1c[nH]c2ncnc(-c3ccc(C(=O)OC)cc3)c12 [Example 1-9, ethyl 4-[4-(methoxycarbonyl)phenyl]-7H-pyrrolo[2,3-d]pyrimidine-5-carboxylate] | 10 to 500 nM | > 500 nM |  | 
CCOC(=O)c1c[nH]c2ncnc(-c3cccc(NC(=O)/C=C/c4ccc(OC)cc4)c3)c12 [Example 5-29, ethyl 4-(3-{[(2E)-3-(4-methoxyphenyl)prop-2-enoyl]amino}phenyl)-7H-pyrrolo[2,3-d]pyrimidine-5-carboxylate] | 10 to 500 nM | > 500 nM |  | 
CCOC(=O)c1c[nH]c2ncnc(-c3ccc(N4CCN(C)CC4)cc3)c12 [Example 1-85, ethyl 4-[4-(4-methylpiperazin-1-yl)phenyl]-7H-pyrrolo[2,3-d]pyrimidine-5-carboxylate] | 10 to 500 nM | > 500 nM |  | 
CCOC(=O)c1c[nH]c2ncnc(C3=CCOCC3)c12 [Example 1-98, ethyl 4-(3,6-dihydro-2H-pyran-4-yl)-7H-pyrrolo[2,3-d]pyrimidine-5-carboxylate] | 10 to 500 nM | > 500 nM |  | 
CCOC(=O)c1c[nH]c2ncnc(-c3cn[nH]c3)c12 [Example 1-51, ethyl 4-(1H-pyrazol-4-yl)-7H-pyrrolo[2,3-d]pyrimidine-5-carboxylate] | 10 to 500 nM | > 500 nM |  | 
CCOC(=O)c1c[nH]c2ncnc(-c3ccc4[nH]ncc4c3)c12 [Example 1-69, ethyl 4-(1H-indazol-5-yl)-7H-pyrrolo[2,3-d]pyrimidine-5-carboxylate] |  |  | 6.5 nM | 98 nM
C=C(C)C(=O)Nc1cccc(-c2ncnc3[nH]cc(-c4nnc(C)o4)c23)c1 [Example 26, N-(3-(5-(5-Methyl-1,3,4-oxadiazol-2-yl)-7H-pyrrolo[2,3-d]pyrimidin-4-yl)phenyl)methacrylamide] |  |  | 2.5 nM | > 1500 nM
C=CC(=O)Nc1cccc(-c2ncnc3[nH]cc(C(=O)OCC)c23)c1C [Example 4-12, ethyl 4-[3-(acryloylamino)-2-methylphenyl]-7H-pyrrolo[2,3-d]pyrimidine-5-carboxylate] |  |  | 0.19 nM | > 1500 nM
C=C(C)C(=O)Nc1cc(-c2ncnc3[nH]cc(C(=O)OCC)c23)ccc1CN(C)C [Example 4-30, ethyl 4-{4-[(dimethylamino)methyl]-3-[(2-methylacryloyl)amino]phenyl}-7H-pyrrolo[2,3-d]pyrimidine-5-carboxylate] |  |  | 1.5 nM | > 1500 nM
CCOC(=O)c1c[nH]c2ncnc(-c3cccc(NC(=O)/C=C(/C)C(F)(F)F)c3)c12 [Example 5-34, ethyl 4-(3-{[(2Z)-4,4,4-trifluoro-3-methylbut-2-enoyl]amino}phenyl)-7H-pyrrolo[2,3-d]pyrimidine-5-carboxylate] |  |  | 1.9 nM | > 1500 nM

Compound | IC50 (JAK3; given as range class) | IC50 (JAK2; given as range class) | IC50 (JAK3) | IC50 (JAK2)
CCOC(=O)c1c[nH]c2ncnc(-c3cccc4[nH]ncc34)c12 [Example 1-64, ethyl 4-(1H-indazol-4-yl)-7H-pyrrolo[2,3-d]pyrimidine-5-carboxylate] | 10 to 500 nM | > 500 nM |  | 
CCOC(=O)c1c[nH]c2ncnc(-c3cccc(NC(=O)C4=CCCCC4)c3)c12 [Example 5-35, ethyl 4-{3-[(cyclohex-1-en-1-ylcarbonyl)amino]phenyl}-7H-pyrrolo[2,3-d]pyrimidine-5-carboxylate] | 10 to 500 nM | > 500 nM |  | 
C=C(C)C(=O)Nc1cc(-c2ncnc3[nH]cc(C(=O)OCC)c23)ccc1Cl [Example 4-9, ethyl 4-{4-chloro-3-[(2-methylacryloyl)amino]phenyl}-7H-pyrrolo[2,3-d]pyrimidine-5-carboxylate] |  |  | 0.013 nM | > 1500 nM
CCOC(=O)c1c[nH]c2ncnc(-c3cccc(C#N)c3)c12 [Example 1-6, ethyl 4-(3-cyanophenyl)-7H-pyrrolo[2,3-d]pyrimidine-5-carboxylate] | 10 to 500 nM | 10 to 500 nM |  | 
C=CC(=O)Nc1cccc(-c2ncnc3[nH]cc(C(=O)OCC)c23)c1 [Example 4-5, ethyl 4-[3-(acryloylamino)phenyl]-7H-pyrrolo[2,3-d]pyrimidine-5-carboxylate] |  |  | 0.04 nM | 790 nM
CCOC(=O)c1c[nH]c2ncnc(-c3cccc(CN4CCOCC4)c3)c12 [Example 1-96, ethyl 4-[3-(morpholin-4-ylmethyl)phenyl]-7H-pyrrolo[2,3-d]pyrimidine-5-carboxylate] | 10 to 500 nM | > 500 nM |  | 
CCOC(=O)c1c[nH]c2ncnc(-c3cccc(C(C)(C)O)c3)c12 [Example 1-105, ethyl 4-[3-(1-hydroxy-1-methylethyl)phenyl]-7H-pyrrolo[2,3-d]pyrimidine-5-carboxylate] | 10 to 500 nM | > 500 nM |  | 
CCOC(=O)c1c[nH]c2ncnc(-c3cccc(NC(=O)/C=C/c4c[nH]c5ccccc45)c3)c12 [Example 5-19, ethyl 4-(3-{[(2E)-3-(1H-indo1-3-yl)prop-2-enoyl]amino}phenyl)-7H-pyrrolo[2,3-d]pyrimidine-5-carboxylate] |  |  | 2.4 nM | > 1500 nM
CCOC(=O)c1c[nH]c2ncnc(-c3ccc(C(=O)NC4CCOC4)cc3)c12 (stereo not drawn) [Example 1-100, ethyl 4-[4-(tetrahydrofuran-3-ylcarbamoyl)phenyl]-7H-pyrrolo[2,3-d]pyrimidine-5-carboxylate] | 10 to 500 nM | > 500 nM |  | 
CCOC(=O)c1c[nH]c2ncnc(-c3cccc(NC(=O)/C=C/C(C)=O)c3)c12 [Example 5-14, ethyl 4-(3-{[(2E)-4-oxopent-2-enoyl]amino}phenyl)-7H-pyrrolo[2,3-d]pyrimidine-5-carboxylate] |  |  | 5.3 nM | > 1500 nM
C=C(C)S(=O)(=O)Nc1cccc(-c2ncnc3[nH]cc(C(=O)OCC)c23)c1 [Example 10-3, ethyl 4-(3-{[(1-methylethenyl)sulfonyl]amino}phenyl)-7H-pyrrolo[2,3-d]pyrimidine-5-carboxylate] | 10 to 500 nM | > 500 nM |  | 
C=C(C)C(=O)Nc1cccc(-c2ncnc3[nH]cc(-c4nnc(C)s4)c23)c1 [Example 27, N-(3-(5-(5-Methyl-1,3,4-thiadiazol-2-yl)-7H-pyrrolo[2,3-d]pyrimidin-4-yl)phenyl)methacrylamide] | 10 to 500 nM | > 500 nM |  | 
CCOC(=O)c1c[nH]c2ncnc(-c3cc(N)nc(OC)c3)c12 [Example 1-4] | 10 to 500 nM | > 500 nM |  | 
CCOC(=O)c1c[nH]c2ncnc(-c3ccc(O)cc3)c12 [Example 1-35, ethyl 4-(4-hydroxyphenyl)-7H-pyrrolo[2,3-d]pyrimidine-5-carboxylate] |  |  | 5.7 nM | 134 nM
C=C(C)C(=O)Nc1cc(-c2ncnc3[nH]cc(C(=O)OCC)c23)c[nH]c1=O [Example 4-33, ethyl 4-{5-[(2-methylacryloyl)amino]-6-oxo-1,6-dihydropyridin-3-yl}-7H-pyrrolo[2,3-d]pyrimidine-5-carboxylate] |  |  | 0.47 nM | > 1500 nM
CCOC(=O)c1c[nH]c2ncnc(-c3cccc(NC(=O)c4c[nH]c(=O)[nH]4)c3)c12 [Example 5-20, ethyl 4-(3-{[(2-oxo-2,3-dihydro-1H-imidazol-4-yl)carbonyl]amino}phenyl)-7H-pyrrolo[2,3-d]pyrimidine-5-carboxylate] | 10 to 500 nM | > 500 nM |  | 
CCOC(=O)c1c[nH]c2ncnc(-c3cccc(NCC(F)(F)F)c3)c12 [Example 3-1, Ethyl 4-{3-[(2,2,2-trifluoroethyl)amino]phenyl}-7H-pyrrolo[2,3-d]pyrimidine-5-carboxylate] | 10 to 500 nM | > 500 nM |  | 
C=C(C)C(=O)Nc1ccc(C#N)c(-c2ncnc3[nH]cc(C(=O)OCC)c23)c1 [Example 4-22, ethyl 4-{2-cyano-5-[(2-methylacryloyl)amino]phenyl}-7H-pyrrolo[2,3-d]pyrimidine-5-carboxylate] | 10 to 500 nM | > 500 nM |  | 
